Laboratory results reported in publication PMC6535779, “A Specific, Glycomimetic Langerin Ligand for Human Langerhans Cell Targeting” (ACS Central Science, 2019).

Molecular target: T1, Langerin extracellular domain (ECD) (Homo sapiens, UniProt Q9UJ71)
T1 construct: the trimeric Langerin extracellular domain (ECD) was expressed insolubly in E; made in house
Assay: 19F R2-filtered NMR reporter displacement assay with Langerin
Assay type: binding
Conditions: for Ki: 19F R2-filtered NMR, 0.1 mM reporter ligand 24, pH 7.8, 25 °C
Experimental: Receptor Expression and Purification
General remarks. Codon-optimized genes for the expression of Langerin and DC-SIGN in E. coli were purchased from GenScript and Life Technologies, respectively. All growth media or chemicals used for receptor expression and purification were purchased from Carl Roth if not stated otherwise.
Langerin extracellular domain. Expression and purification were conducted as previously published14. Briefly, the trimeric Langerin extracellular domain (ECD) was expressed insolubly in E. coli BL21* (DE3) (Invitrogen). Following enzymatic cell lysis, inclusion bodies were harvested and subsequently solubilized. The sample was centrifuged and the Langerin ECD was refolded overnight via rapid dilution. Next, the sample was dialyzed overnight, centrifuged and purified via mannan-agarose affinity chromatography (Sigma Aldrich). For 19F R2-filtered NMR and lipid-enzyme-linked lectin assay (Lipid-ELLA) experiments, the buffer was exchanged to 25 mM Tris with 150 mM NaCl and 5 mM CaCl2 at pH 7.8 using 7 kDa size-exclusion desalting columns (Thermo Scientific). For […]
D2O, 150 mM NaCl and 5 mM CaCl2 at pH 7. The concentration of Langerin ECD was determined via UV spectroscopy (A280, 0.1% = 2.45). Purity and monodispersity of Langerin ECD samples were analyzed via SDS PAGE and DLS. […]
General remarks. 19F R2-filtered NMR experiments were conducted on a PremiumCompact 600 MHz spectrometer (Agilent). Spectra were processed in MestReNova and data analysis was performed with OriginPro 13, 15. Experiments with the Langerin ECD were performed at a receptor concentration of 50 μM in 25 mM Tris with 10% D2O, 150 mM NaCl and 5 mM CaCl2 at pH 7.8 and 25° C. […]
10% D2O, 150 mM NaCl and 5 mM CaCl2 at pH 7.0 and 25°C. TFA served as an internal reference at a concentration of 50 μM. Apparent relaxation rates R2,obs for the reporter ligand were determined using the CPMG pulse sequence as previously published3-5. […]
KI determination. KI values were determined as previously published for Langerin3. Briefly, titration experiments were conducted at a concentration of 0.1 mM of reporter ligand 24 at five competitor concentrations [I]T. Samples were prepared via serial dilution. For the acids GlcNS, GlcNAc-6-OS and GlcNS-6-OS the pH values were monitored and adjusted to 7.8 if necessary.
General remarks. 15N HSQC NMR experiments were conducted on an Ascend 700 MHz spectrometer (Bruker)16. Spectra were processed in NMRPipe17. Data analysis was performed using CCPN Analysis, MatLab and OriginPro15, 18-19. Experiments with the Langerin CRD were performed at a receptor concentration of 100 μM in 25 mM HEPES with 10% D 2O, 150 mM NaCl and 5 mM CaCl2 at pH 7.8 and 25° C. DSS-d6 served as an internal reference at a concentration of 100 μM. Spectra were referenced via the internal spectrometer reference. Spectra were acquired with 128 increments and 32 scans per increments for 150 μl samples in 3 mm sample tubes. The relaxation delay d1 was set to 1.4 s and the acquisition time tacq was set to 100 ms. The W5 Watergate pulse sequence was used for solvent suppression20. The used resonance assignment for the Langerin CRD has been published […]
KD determination. KD values were determined in titration experiments at six ligand concentrations [L]T. Samples were prepared via serial dilution. Chemical shift perturbations CSPs for Langerin CRD resonances in the fast or fast-to-intermediate exchange regime observed upon titration with ligand were calculated via Equation 121.

[1] = calculated utilizing the KI value determined for 21

T1 sequence (Q9UJ71 65-328 limits assumed): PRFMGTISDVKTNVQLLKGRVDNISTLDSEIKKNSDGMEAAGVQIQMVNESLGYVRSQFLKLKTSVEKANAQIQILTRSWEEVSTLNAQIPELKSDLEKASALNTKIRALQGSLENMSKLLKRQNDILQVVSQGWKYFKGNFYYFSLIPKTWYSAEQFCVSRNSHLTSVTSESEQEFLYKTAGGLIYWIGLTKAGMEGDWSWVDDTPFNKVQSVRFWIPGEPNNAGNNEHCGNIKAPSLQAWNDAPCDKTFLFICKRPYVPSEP

Structure (SMILES): Cc1ccc(S(=O)(=O)N[C@H]2C(O)O[C@H](CO)[C@@H](O)[C@@H]2O)cc1 (stereo partly drawn) [compound 2]
- Ki: 320 ± 50 µM
- Relative potency, Langerin [1]: 31
- Relative potency, Langerin (calculated utilizing the KI value determined for GlcNAc): 13
- affinity increase over GlcNAc (from KI values, Langerin): 13 fold

Structure (SMILES): CC(=O)NCCO[C@@H]1O[C@H](CO)[C@@H](O)[C@H](O)[C@H]1NS(=O)(=O)c1ccc(C)cc1 [compound 16]
- Ki: 240 ± 30 µM
- Relative potency, Langerin [1]: 42
- affinity increase over Man-based reference molecule 21 (from KI values, Langerin, b47 words it as over natural glycans): 42 fold

Structure (SMILES): CC(=O)NCCO[C@H]1O[C@H](CO)[C@@H](O)[C@H](O)[C@@H]1O [compound 21]
- Ki: 10000 ± 1000 µM
- Relative potency, Langerin [1]: 1.0
